Reference: patent US12077503B2, “Substituted cyclic amides and their use as herbicides” (FMC CORPORATION, priority 2015, dated 2024)

Columns and labels:
Type in all cases: in vivo
[1] = tested on: barnyardgrass (Echinochloa crus-galli); assay: Test G Pre-Emergence Protocol; conditions: Echinochloa crus-galli, pre-emergence, 312 h, evaluated after 13 days; for pest or weed control at 15.625 g/ha: 15.625 g ai/ha; for pest or weed control at 15.625 g/ha / pest or weed control at 250 g/ha: read-out: Barnyardgrass damage rating (100=total damage to plant; 0=no damage to plant); for pest or weed control at 62.5 g/ha: 62.5 g ai/ha, 100=total damage to plant, 0=no damage to plant, read-out: Barnyardgrass damage rating; for pest or weed control at 250 g/ha: 250 g ai/ha
Method in brief: (§1)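 Pots of seeds in standard soil were grown for one day in a glasshouse (24/16 °C day/night, 14 h light, 65% humidity), then sprayed with compound in acetone/water 50:50 with 0.5% Tween 20 at 15.625, 62.5 or 250 g/ha. Damage was scored after 13 days on a 0 (none) to 100 (total) scale.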

[2] = tested on: corn (Zea mays); assay: Test G Pre-Emergence Protocol; conditions: Zea mays, pre-emergence, 312 h, evaluated after 13 days; for plant injury at 15.625 g/ha: 15.625 g ai/ha; for plant injury at 15.625 g/ha / plant injury at 250 g/ha: read-out: Corn damage rating (100=total damage to plant; 0=no damage to plant); for plant injury at 62.5 g/ha: 62.5 g ai/ha, 100=total damage to plant, 0=no damage to plant, read-out: Corn damage rating; for plant injury at 250 g/ha: 250 g ai/ha
Method in brief: as §1

[3] = tested on: giant foxtail (Setaria faberi); assay: Test G Pre-Emergence Protocol; conditions: Setaria faberi, pre-emergence, 312 h, evaluated after 13 days; for pest or weed control at 15.625 g/ha: 15.625 g ai/ha; for pest or weed control at 15.625 g/ha / pest or weed control at 250 g/ha: read-out: Foxtail, Giant damage rating (100=total damage to plant; 0=no damage to plant); for pest or weed control at 62.5 g/ha: 62.5 g ai/ha, 100=total damage to plant, 0=no damage to plant, read-out: Foxtail, Giant damage rating; for pest or weed control at 250 g/ha: 250 g ai/ha
Method in brief: as §1

[4] = tested on: ivy-leaved morning glory (Ipomoea hederacea); assay: Test G Pre-Emergence Protocol; conditions: Ipomoea, pre-emergence, 312 h, evaluated after 13 days; for pest or weed control at 15.625 g/ha: 15.625 g ai/ha; for pest or weed control at 15.625 g/ha / pest or weed control at 250 g/ha: read-out: Morningglory, Ivy-leaved damage rating (100=total damage to plant; 0=no damage to plant); for pest or weed control at 62.5 g/ha: 62.5 g ai/ha, 100=total damage to plant, 0=no damage to plant, read-out: Morningglory, Ivy-leaved damage rating; for pest or weed control at 250 g/ha: 250 g ai/ha
Method in brief: as §1

[5] = tested on: redroot pigweed (Amaranthus retroflexus); assay: Test G Pre-Emergence Protocol; conditions: Amaranthus retroflexus, pre-emergence, 312 h, evaluated after 13 days; for pest or weed control at 15.625 g/ha: 15.625 g ai/ha; for pest or weed control at 15.625 g/ha / pest or weed control at 250 g/ha: read-out: Pigweed, Redroot damage rating (100=total damage to plant; 0=no damage to plant); for pest or weed control at 62.5 g/ha: 62.5 g ai/ha, 100=total damage to plant, 0=no damage to plant, read-out: Pigweed, Redroot damage rating; for pest or weed control at 250 g/ha: 250 g ai/ha
Method in brief: as §1

[6] = tested on: velvetleaf (Abutilon theophrasti); assay: Test G Pre-Emergence Protocol; conditions: Abutilon theophrasti, pre-emergence, 312 h, evaluated after 13 days; for pest or weed control at 15.625 g/ha: 15.625 g ai/ha; for pest or weed control at 15.625 g/ha / pest or weed control at 250 g/ha: read-out: Velvetleaf damage rating (100=total damage to plant; 0=no damage to plant); for pest or weed control at 62.5 g/ha: 62.5 g ai/ha, 100=total damage to plant, 0=no damage to plant, read-out: Velvetleaf damage rating; for pest or weed control at 250 g/ha: 250 g ai/ha
Method in brief: as §1

[7] = tested on: barnyardgrass (Echinochloa crus-galli); assay: Test G Post-Emergence Protocol; conditions: Echinochloa crus-galli, post-emergence, 312 h, read-out: Barnyardgrass damage rating; for pest or weed control at 15.625 g/ha: 15.625 g ai/ha, evaluated after 13 days (100=total damage to plant; 0=no damage to plant); for pest or weed control at 62.5 g/ha: 62.5 g ai/ha; for pest or weed control at 62.5 g/ha / pest or weed control at 250 g/ha: evaluated after 13 days, 100=total damage to plant, 0=no damage to plant; for pest or weed control at 250 g/ha: 250 g ai/ha
Method in brief: (§2)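 Scores run 0 (no damage) to 100 (total damage) and were taken 13 days after spraying. Plants had been raised in pots for 8 days under glasshouse control (24/16 °C, 14 h photoperiod, 65% humidity) and then treated at 15.625, 62.5 or 250 g/ha.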

[8] = tested on: corn (Zea mays); assay: Test G Post-Emergence Protocol; conditions: Zea mays, post-emergence, 312 h, read-out: Corn damage rating; for plant injury at 15.625 g/ha: 15.625 g ai/ha, evaluated after 13 days (100=total damage to plant; 0=no damage to plant); for plant injury at 62.5 g/ha: 62.5 g ai/ha; for plant injury at 62.5 g/ha / plant injury at 250 g/ha: evaluated after 13 days, 100=total damage to plant, 0=no damage to plant; for plant injury at 250 g/ha: 250 g ai/ha
Method in brief: as §2

[9] = tested on: giant foxtail (Setaria faberi); assay: Test G Post-Emergence Protocol; conditions: Setaria faberi, post-emergence, 312 h, read-out: Foxtail, Giant damage rating; for pest or weed control at 15.625 g/ha: 15.625 g ai/ha, evaluated after 13 days (100=total damage to plant; 0=no damage to plant); for pest or weed control at 62.5 g/ha: 62.5 g ai/ha; for pest or weed control at 62.5 g/ha / pest or weed control at 250 g/ha: evaluated after 13 days, 100=total damage to plant, 0=no damage to plant; for pest or weed control at 250 g/ha: 250 g ai/ha
Method in brief: as §2

[10] = tested on: ivy-leaved morning glory (Ipomoea hederacea); assay: Test G Post-Emergence Protocol; conditions: Ipomoea, post-emergence, 312 h, read-out: Morningglory, Ivy-leaved damage rating; for pest or weed control at 15.625 g/ha: 15.625 g ai/ha, evaluated after 13 days (100=total damage to plant; 0=no damage to plant); for pest or weed control at 62.5 g/ha: 62.5 g ai/ha; for pest or weed control at 62.5 g/ha / pest or weed control at 250 g/ha: evaluated after 13 days, 100=total damage to plant, 0=no damage to plant; for pest or weed control at 250 g/ha: 250 g ai/ha
Method in brief: as §2

[11] = tested on: redroot pigweed (Amaranthus retroflexus); assay: Test G Post-Emergence Protocol; conditions: Amaranthus retroflexus, post-emergence, 312 h, read-out: Pigweed, Redroot damage rating; for pest or weed control at 15.625 g/ha: 15.625 g ai/ha, evaluated after 13 days (100=total damage to plant; 0=no damage to plant); for pest or weed control at 62.5 g/ha: 62.5 g ai/ha; for pest or weed control at 62.5 g/ha / pest or weed control at 250 g/ha: evaluated after 13 days, 100=total damage to plant, 0=no damage to plant; for pest or weed control at 250 g/ha: 250 g ai/ha
Method in brief: as §2

[12] = tested on: velvetleaf (Abutilon theophrasti); assay: Test G Post-Emergence Protocol; conditions: Abutilon theophrasti, post-emergence, 312 h, read-out: Velvetleaf damage rating; for pest or weed control at 15.625 g/ha: 15.625 g ai/ha, evaluated after 13 days (100=total damage to plant; 0=no damage to plant); for pest or weed control at 62.5 g/ha: 62.5 g ai/ha; for pest or weed control at 62.5 g/ha / pest or weed control at 250 g/ha: evaluated after 13 days, 100=total damage to plant, 0=no damage to plant; for pest or weed control at 250 g/ha: 250 g ai/ha
Method in brief: as §2

Compound	pest or weed control at 15.625 g/ha [1] [%]	pest or weed control at 62.5 g/ha [1] [%]	pest or weed control at 250 g/ha [1] [%]	plant injury at 15.625 g/ha [2] [%]	plant injury at 62.5 g/ha [2] [%]	plant injury at 250 g/ha [2] [%]	pest or weed control at 15.625 g/ha [3] [%]	pest or weed control at 62.5 g/ha [3] [%]	pest or weed control at 250 g/ha [3] [%]	pest or weed control at 15.625 g/ha [4] [%]	pest or weed control at 62.5 g/ha [4] [%]	pest or weed control at 250 g/ha [4] [%]	pest or weed control at 15.625 g/ha [5] [%]	pest or weed control at 62.5 g/ha [5] [%]	pest or weed control at 250 g/ha [5] [%]	pest or weed control at 15.625 g/ha [6] [%]	pest or weed control at 62.5 g/ha [6] [%]	pest or weed control at 250 g/ha [6] [%]	pest or weed control at 15.625 g/ha [7] [%]	pest or weed control at 62.5 g/ha [7] [%]	further results
CN1C[C@H](c2ccc(C(F)(F)F)cc2)[C@@H](C(=O)Nc2cccnc2[N+](=O)[O-])C1=O (racemic) [Compound 1824]	0	0	70	0	0	0	0	10	80	0	0	0	0	0	20	0	0	0	0	0	pest or weed control at 250 g/ha [7]: 10%; plant injury at 15.625 g/ha [8]: 0%; plant injury at 62.5 g/ha [8]: 0%; plant injury at 250 g/ha [8]: 20%; pest or weed control at 15.625 g/ha [9]: 0%; pest or weed control at 62.5 g/ha [9]: 0%; pest or weed control at 250 g/ha [9]: 10%; pest or weed control at 15.625 g/ha [10]: 0%; pest or weed control at 62.5 g/ha [10]: 0%; pest or weed control at 250 g/ha [10]: 10%; pest or weed control at 15.625 g/ha [11]: 0%; pest or weed control at 62.5 g/ha [11]: 0%; pest or weed control at 250 g/ha [11]: 20%; pest or weed control at 15.625 g/ha [12]: 0%; pest or weed control at 62.5 g/ha [12]: 0%; pest or weed control at 250 g/ha [12]: 70%
C=Cc1cc(Oc2ccccc2)cc([C@@H]2CN(C)C(=O)[C@H]2C(=O)Nc2cccc(F)c2F)c1 (racemic) [Compound 1826]	0	70	80	10	10	20	20	80	90	0	0	0	0	0	20	0	0	0	0	10	pest or weed control at 250 g/ha [7]: 70%; plant injury at 15.625 g/ha [8]: 0%; plant injury at 62.5 g/ha [8]: 20%; plant injury at 250 g/ha [8]: 50%; pest or weed control at 15.625 g/ha [9]: 0%; pest or weed control at 62.5 g/ha [9]: 40%; pest or weed control at 250 g/ha [9]: 80%; pest or weed control at 15.625 g/ha [10]: 0%; pest or weed control at 62.5 g/ha [10]: 20%; pest or weed control at 250 g/ha [10]: 10%; pest or weed control at 15.625 g/ha [11]: 0%; pest or weed control at 62.5 g/ha [11]: 0%; pest or weed control at 250 g/ha [11]: 50%; pest or weed control at 15.625 g/ha [12]: 0%; pest or weed control at 62.5 g/ha [12]: 0%; pest or weed control at 250 g/ha [12]: 10%
CN1C[C@H](c2ccc(C(F)(F)F)cc2)[C@@H](C(=O)Nc2ccc3ncccc3n2)C1=O (racemic) [Compound 1833]	0	0	0	0	0	0	0	0	0	0	0	0	0	0	0	0	0	0	0	0	pest or weed control at 250 g/ha [7]: 0%; plant injury at 15.625 g/ha [8]: 0%; plant injury at 62.5 g/ha [8]: 0%; plant injury at 250 g/ha [8]: 0%; pest or weed control at 15.625 g/ha [9]: 0%; pest or weed control at 62.5 g/ha [9]: 0%; pest or weed control at 250 g/ha [9]: 0%; pest or weed control at 15.625 g/ha [10]: 0%; pest or weed control at 62.5 g/ha [10]: 0%; pest or weed control at 250 g/ha [10]: 0%; pest or weed control at 15.625 g/ha [11]: 0%; pest or weed control at 62.5 g/ha [11]: 0%; pest or weed control at 250 g/ha [11]: 0%; pest or weed control at 15.625 g/ha [12]: 0%; pest or weed control at 62.5 g/ha [12]: 0%; pest or weed control at 250 g/ha [12]: 0%
